Data as given in patent US7666254B1, “Borate compositions for wood preservation” (Osmose, Inc., priority 2006, dated 2010).

Test system: Coptotermes acinaciformis
Experiment: ensis mean mass loss test: laboratory termite bioassay of treated Pinus radiata specimens, eight weeks
Format: in vivo
Conditions: 8 weeks exposure, mean of 6 replicates, SE in parentheses
Text: Pinus radiata D. Don (Radiata pine) specimens (20×20×10 mm long) were cut from the sapwood of several pruned, fast-grown trees that had been harvested from the northern plantation forests of […], Australia. These samples are referred to as “ensis samples.” Trees were 20 to 24 years old. Specimens were pooled and randomly allocated into treatment groups. Prior to treatment, specimens were conditioned to 9.5% moisture content (m.c.). […] The solutions were used immediately. The following impregnation protocol was used: (the “ensis impregnation protocol”). Specimens were treated by drawing a vacuum of -95 kPa for 30 minutes, introducing the preservative solution while under vacuum, and immediately releasing the vacuum. Specimens were allowed to absorb the solution for 30 minutes atmospheric pressure. Each specimen was weighed before and immediately after treatment to determine retention. The specimens closest to the desired retentions were selected. Prior to bioassay against termites, all test specimens from each treatment were artificially weathered to H2 conditions by vacuum oven drying for three days at 40° C. and -95 kPa. After removal from the vacuum ovens, the specimens were cooled in a desiccator before being weighed to obtain initial masses. At each stage, care was taken to ensure that specimens of different treatments were kept separate. The weathering step removed from the specimens any volatiles that may be deleterious to termite health and vigor, as well as to provide artificial ageing. The test specimens were subjected to bioassay in accordance with the minimum requirements specified for H2 conditions in the Australasian Wood Preservation Committee Protocols for Assessment of Wood Preservatives (AWPC 1997), using one species of subterranean termite, Coptotermes acinaciformis. C. acinaciformis is widely distributed throughout mainland Australia and is responsible for greater economic loss that all other species of Australian termites combined (Gay and Calaby 1970). Only fresh, field collected stocks of termites were used for the bioassay. These termites were collected from the Northern Territory, transported by air to the Ensis Clayton laboratory and used promptly. Six replicate test specimens of each treatment were exposed to termites. A further three specimens were designated as vacuum oven controls. The following testing protocol was used (the “[…] loss test”). A single test specimen was centered on a 29 mm plastic disc to stop diffusion of boron out of the specimen. They were centrally placed on a moist matrix of C. acinaciformis finely ground mound material (20g, 100% m.c.) within a 250 ml glass jar (96 mm high, 62 mm diameter). Five grams of C. acinaciformis were added to each jar. A plastic lid, with a central 9 mm diameter ventilator, closed the jar (FIG. 1). The duration of the bioassay was eight weeks. The bioassay was conducted in an insectary maintained at 27° C., 70% RH. […] At the conclusion of the bioassay, test specimens were removed from the jars and cleaned. The test specimens, as well as vacuum oven controls, were then vacuum oven dried under the same conditions that were used to obtain the initial masses (i.e., 3 days at 40° C. and -95 kPa). After cooling and weighing the specimens, the final and initial masses were compared to obtain mass loss. If necessary, the mass loss of specimens exposed to termites was adjusted to accommodate any changes recorded in the vacuum oven controls.

SMILES: Cc1c(COC(=O)[C@@H]2[C@H](/C=C(\Cl)C(F)(F)F)C2(C)C)cccc1-c1ccccc1 (racemic) [bifenthrin]
- Mean mass loss (target retention 2.5 g/m^3 bifenthrin): 15.6 (2.9) %
- Mean mass loss (target retention 5.0 g/m^3 bifenthrin): 4.8 (0.5) %
- Mean mass loss (target retention 7.5 g/m^3 bifenthrin): 4.2 (0.4) %

SMILES: O.O.O.O.O=BOB1OB(OB=O)OB2OB([O-])OB([O-])OB(O1)O2.[Na+].[Na+] [BAE, disodium octaborate tetrahydrate]
- Mean mass loss (target retention 0.1% BAE (% m/m in OD wood)): 93.5 (3.9) %
- Mean mass loss (target retention 0.2% BAE): 30.9 (5.3) %
- Mean mass loss (target retention 0.5% BAE): 48.6 (12.7) %
